From the NIST ThermoML archive (doi:10.1016/j.tca.2017.12.024)
Numbers after ± are expanded uncertainties.

What was measured:
[1] = Molar enthalpy of transition or fusion; conditions: Crystal; DSC
[2] = Crystal; DTA

In the case of `CCCCCCCCCCCC(=O)O` [dodecanoic acid], the “Molar enthalpy of transition or fusion” value [1] is reported as 35.3 ± 7 kJ/mol and the Normal melting temperature [2] is reported as 43.60 ± 3 °C.
In the case of `CCCCCCCCCC(=O)O` [decanoic acid], the “Molar enthalpy of transition or fusion” value [1] is reported as 25 ± 5 kJ/mol and the Normal melting temperature [2] is reported as 32.00 ± 3 °C.
In the case of `CCCCCCCCCCCCCCCC(=O)O` [hexadecanoic acid], the “Molar enthalpy of transition or fusion” value [1] is reported as 52.8 ± 11 kJ/mol and the Normal melting temperature [2] is reported as 61.70 ± 3 °C.
In the case of `CCCCCCCCCCCCCC(=O)O` [tetradecanoic acid], the “Molar enthalpy of transition or fusion” value [1] is reported as 42.5 ± 8.4 kJ/mol and the Normal melting temperature [2] is reported as 54.70 ± 3 °C.
In the case of `CCCCCCCCCCCCCCCCCC(=O)O` [octadecanoic acid], the “Molar enthalpy of transition or fusion” value [1] is reported as 60 ± 12 kJ/mol and the Normal melting temperature [2] is reported as 68.40 ± 3 °C.
